Like-named read-outs stand apart in the source and are kept apart here.
Experiments:
Format in all cases: cell-based
[1] = system: acetylated α-tubulin (AcTub) levels in QBI293 cells; assay: QBI293 cell assay of MT stabilization: acetylated α-tubulin ELISA
Summary of the method: (§1)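 AcTub and α-Tub were quantified by ELISA in whole-cell extracts normalized by BCA protein and expressed relative to vehicle. AcTub changes were also scaled to a 100 nM reference stabilizer control.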

[2] = system: total α-tubulin (α-Tub) levels in QBI293 cells; assay: QBI293 cell assay: total α-tubulin ELISA
Summary of the method: as §1

[3] = system: AcTub levels in OA-treated primary mouse cortical neurons; assay: Okadaic acid (OA) assay, AcTub ELISA in primary mouse cortical neurons; settings: OA 15 nM, 8 h, compound 1 and 10 μM
Experimental: To further evaluate the activity of Class I alkyne derivatives and hybrid compounds, several compounds were also assessed for their ability to compensate for MT deficits in primary neuron cultures that were treated with the phosphatase inhibitor, okadaic acid (OA). As previously described,[11] treatment of rodent neurons with OA results in tau hyperphosphorylation and MT collapse that presumably results, at least in part, from tau disengagement from MTs. Co-treatment of neurons with Class I TPDs, such as 1, along with OA prevents this MT collapse, with a resulting normalization of MT structure and neuronal processes which can be observed upon visual inspection of the neurons or through an assessment of neuronal AcTub levels, while Class II TPDs are generally unable to provide meaningful compensation of MT deficits, especially when tested at higher (i.e., 10 μM) compound concentration.[11],[12]
Figure 4 ELISA determination of AcTub levels in homogenates from primary rat cortical neurons treated with either vehicle, or OA (15 nM) in the presence of vehicle or TPD 1, 8, 9 (A); and primary mouse cortical neurons treated with vehicle, or OA (15 nM) in the presence of vehicle or TPD 1, 24, 45, 46, 53, 54 (B). Error bars represent SEM, with ***, p < 0.001 relative to vehicle treatment in the absence of OA as determined by one-way ANOVA.
Compound-induced changes in acetylated-tubulin and α-tubulin in QBI293 cells or primary mouse or rat neurons were as previously described.[11],[12] For compound testing, QBI293 cells were plated at a density of 2 × 10^5 cells/well in 12-well plates. The plated cells were incubated overnight, after which the medium was aspirated and fresh medium containing vehicle (0.25–0.3% DMSO) or test compound was added. Test compounds were prepared as 4–20 mM stock solutions in 100% DMSO, and these were diluted in culture medium prior to addition to the QBI293 cells. After 4 h incubation, whole-cell extracts were prepared from the QBI293 cells as described[11] and the supernatant fraction from each sample was assessed for protein content by bicinchoninic acid (BCA) assay. The amount of acetyl-tubulin (AcTub) and α-tubulin (αTub) within the cell extract samples was quantified using specific enzyme-linked immunosorbent assays (ELISA), as previously described.[11] Acetyl-tubulin levels were determined in a similar manner in rat or mouse cortical neuron cultures in which embryonic dissociated cortical neurons were plated at 3 × 10^5 cells/well in poly-D-lysine-coated 12-well plates, essentially as previously described.[11] The neurons were allowed to grow for 10 days before they were treated for 8 h with 15 nM okadaic acid in the presence or absence of test compound prepared as described above, or vehicle (0.25% DMSO). Culture homogenates were prepared for the determination of AcTub levels by ELISA as previously described.[11]
VehicleVehicleVehicleVehicle25 (1 µM)
Figure S2. Assessment of AcTub levels in primary mouse cortical neurons treated with vehicle,
(1 picture or pasted object on this page, not shown here)

C[C@@H](Nc1c(-c2c(F)cc(C#CCCO)cc2F)c(Cl)nc2ncnn12)C(C)(C)C [Compound 53, (R)-4-(4-(5-Chloro-7-((3,3-dimethylbutan-2-yl)amino)-[1,2,4]triazolo[1,5-a]pyrimidin-6-yl)-3,5-difluorophenyl)but-3-yn-1-ol] was tested, and the “AcTub (1 uM - normalized)” value ([1]; 1 uM compound, normalized) was 0.57, the “AcTub (10 uM - normalized)” value ([1]; 10 uM compound, normalized) was 0.81 and the fold induction at 1 µM ([1]; 4 h, 1 uM compound, read-out: AcTub (1uM)) was 3.67. For the same compound, the fold induction at 10 µM ([1]; 4 h, 10 uM compound, read-out: AcTub (10 uM)) was 5.25, the “AcTub 1 μM, fold-change compared to positive control compound 5 (100 nM) (in parentheses)” value ([1]; 4 h incubation, 1 μM) was 0.57 fold-change and the fold induction at 1 µM ([1]; 4 h incubation, 1 μM, read-out: AcTub 1 μM, fold-change compared to vehicle (DMSO)-treated cells) was 3.67 ± 0.34. The “AcTub 10 μM, fold-change compared to positive control compound 5 (100 nM) (in parentheses)” value ([1]; 4 h incubation, 10 μM) was 0.81 fold-change, the fold induction at 10 µM ([1]; 4 h incubation, 10 μM, read-out: AcTub 10 μM, fold-change compared to vehicle (DMSO)-treated cells) was 5.25 ± 0.89 and the fold induction at 1 µM ([2]; 4 h, 1 uM compound, read-out: AlfaTub (1uM)) was 0.98. For the same compound, the fold induction at 10 µM ([2]; 4 h, 10 uM compound, read-out: AlfaTub (10 uM)) was 0.98, the fold induction at 1 µM ([2]; 4 h incubation, 1 μM, read-out: α-Tub 1 μM, fold-change compared to vehicle (DMSO)-treated cells) was 0.98 ± 0.04 and the fold induction at 10 µM ([2]; 4 h incubation, 10 μM, read-out: α-Tub 10 μM, fold-change compared to vehicle (DMSO)-treated cells) was 0.98 ± 0.21. For the same compound, the “prevention/correction of OA-induced MT collapse (AcTub levels)” value [3] was “can prevent the OA-induced MT collapse”.
